Values of other authors in patent US10960082B2, “Tridentate connexon and use thereof” (NEWBIO THERAPEUTICS, INC., priority 2013, dated 2021).

Tested on: human carcinoma lines

## COc1cccc2c1C(=O)c1c(O)c3c(c(O)c1C2=O)C[C@@](O)(C(=O)CO)C[C@@H]3O[C@H]1C[C@H](N)[C@H](O)[C@H](C)O1 [doxorubicin]
  IC50: 100 to 200 nM
